This note sets out measurements from US6822097B1, “Compounds and methods of uses” (Amgen, Inc., priority 2002, dated 2004).

In general, melting point refers to the temperature of the solid-liquid transition.

Take `CN(c1nc(-c2cc3ccccc3[nH]c2=O)cs1)S(=O)(=O)c1cn(C)cn1` [Example 8732, N,1-Dimethyl-N-(4-(2-oxo-1,2-dihydro-3-quinolinyl)-1,3-thiazol-2-yl)-1H-imidazole-4-sulfonamide]: the melting point is more than 300 °C.
Molecule `COC(=O)c1ccc2cc(-c3csc(N(C)S(=O)(=O)c4ccccc4)n3)c(=O)[nH]c2c1` [Example 8763] gave a melting point of more than 300 °C.
In the case of `CN1CCN(C(=O)c2ccc3cc(-c4csc(N(C)S(=O)(=O)c5ccccc5)n4)c(=O)[nH]c3c2)CC1` [Example 8765, N-Methyl-N-{4-[7-(4-methyl-piperazine-1-carbonyl)-2-oxo-1,2-dihydro-quinolin-3-yl]-thiazol-2-yl}-benzenesulfonamide], the melting point fell in the range of 242 to 247 °C.
Molecule `CCNC(=O)c1ccc2cc(-c3csc(N(C)S(=O)(=O)c4ccccc4)n3)c(=O)[nH]c2c1` [Example 8766, 3-[2-(Benzenesulfonyl-methyl-amino)-thiazol-4-yl]-2-oxo-1,2-dihydro-quinoline-7-carboxylic acid ethylamide] yielded a melting point of more than 300 °C.
Then `CCN(CC)C(=O)c1ccc2cc(-c3csc(N(C)S(=O)(=O)c4ccccc4)n3)c(=O)[nH]c2c1` [Example 8767, N,N-Diethyl-3-(2-(methyl(phenylsulfonyl)amino)-1,3-thiazol-4-yl)-2-oxo-1,2-dihydro-7-quinolinecarboxamide], with 200 to 202 °C; and `CN(C)CCN(C)C(=O)c1ccc2cc(-c3csc(N(C)S(=O)(=O)c4ccccc4)n3)c(=O)[nH]c2c1` [Example 8788, 3-[2-(Benzenesulfonyl-methyl-amino)-thiazol-4-yl]-2-oxo-1,2-dihydro-quinoline-7-carboxylic acid (2-dimethylamino-ethyl)-methyl-amide], with 144 to 148 °C.
`O=c1[nH]c2ccccc2cc1-c1csc(NS(=O)(=O)c2ccc(Cl)cc2)n1` [Example 8789, 4-Chloro-N-(4-(2-oxo-1,2-dihydro-3-quinolinyl)-1,3-thiazol-2-yl)benzenesulfonamide] had a melting point of more than 300 °C.
